Reference: patent US8530667B2, “Herbicides” (Syngenta Limited, priority 2007, dated 2013)

Assays:
Format in all cases: in vivo
[1] = tested on: Echinochloa crus-galli (ECHCG); assay: Example B pre-emergence herbicidal activity, glasshouse pot test; conditions: 312 h, Rate 250 g/ha, evaluated after 13 days, read-out: Pre-Emergence Activity ECHCG (100=total damage to plant; 0=no damage to plant)
Method: (§1) Seeds of a variety of test species were sown in standard soil in pots. After cultivation for one day (pre-emergence) or after 8 days cultivation (post-emergence) under controlled conditions in a glasshouse (at 24/16° C., day/night; 14 hours light; 65% humidity), the plants were sprayed with an aqueous spray solution derived from the formulation of the technical active ingredient in acetone/water (50:50) solution containing 0.5% Tween 20 (polyoxyethelyene sorbitan monolaurate, CAS RN 9005-64-5). The test plants were then grown in a glasshouse under controlled conditions in a glasshouse (at 24/16° C., day/night; 14 hours light; 65% humidity) and watered twice daily. After 13 days for pre and post-emergence, the test was evaluated (100=total damage to plant; 0=no damage to plant). Alopecurus myosuroides (ALOMY), Avena fatua (AVEFA), Setaria faberi (SETFA), Echinochloa crus-galli (ECHCG) and Amaranthus retoflexus (AMARE)

[2] = tested on: Avena fatua (AVEFA); assay: as above; conditions: 312 h, Rate 250 g/ha, evaluated after 13 days, read-out: Pre-Emergence Activity AVEFA (100=total damage to plant; 0=no damage to plant)
Method: as §1

[3] = tested on: Amaranthus retoflexus (AMARE); assay: as above; conditions: Amaranthus retroflexus, 312 h, Rate 250 g/ha, evaluated after 13 days, read-out: Pre-Emergence Activity AMARE (100=total damage to plant; 0=no damage to plant)
Method: as §1

[4] = tested on: Alopecurus myosuroides (ALOMY); assay: as above; conditions: 312 h, Rate 250 g/ha, evaluated after 13 days, read-out: Pre-Emergence Activity ALOMY (100=total damage to plant; 0=no damage to plant)
Method: as §1

[5] = tested on: Setaria faberi (SETFA); assay: as above; conditions: 312 h, Rate 250 g/ha, evaluated after 13 days, read-out: Pre-Emergence Activity SETFA (100=total damage to plant; 0=no damage to plant)
Method: as §1

[6] = tested on: Echinochloa crus-galli (ECHCG); assay: Example B post-emergence herbicidal activity, glasshouse pot test; conditions: 312 h, rate 250 g/ha, evaluated after 13 days, read-out: Post-emergence activity ECHCG (100=total damage to plant; 0=no damage to plant)
Method: as §1

[7] = tested on: Avena fatua (AVEFA); assay: as above; conditions: 312 h, rate 250 g/ha, evaluated after 13 days, read-out: Post-emergence activity AVEFA (100=total damage to plant; 0=no damage to plant)
Method: as §1

[8] = tested on: Amaranthus retoflexus (AMARE); assay: as above; conditions: Amaranthus retroflexus, 312 h, rate 250 g/ha, evaluated after 13 days, read-out: Post-emergence activity AMARE (100=total damage to plant; 0=no damage to plant)
Method: as §1

[9] = tested on: Alopecurus myosuroides (ALOMY); assay: as above; conditions: 312 h, rate 250 g/ha, evaluated after 13 days, read-out: Post-emergence activity ALOMY (100=total damage to plant; 0=no damage to plant)
Method: as §1

[10] = tested on: Setaria faberi (SETFA); assay: as above; conditions: 312 h, rate 250 g/ha, evaluated after 13 days, read-out: Post-emergence activity SETFA (100=total damage to plant; 0=no damage to plant)
Method: as §1

SMILES	pest or weed control at 250 g/ha [1] [%]	pest or weed control at 250 g/ha [2] [%]	pest or weed control at 250 g/ha [3] [%]	pest or weed control at 250 g/ha [4] [%]	pest or weed control at 250 g/ha [5] [%]	pest or weed control at 250 g/ha [6] [%]	pest or weed control at 250 g/ha [7] [%]	pest or weed control at 250 g/ha [8] [%]	pest or weed control at 250 g/ha [9] [%]	pest or weed control at 250 g/ha [10] [%]
Cc1sc(-c2ccc(OC(F)F)cc2)nc1C1C(=O)[C@@H]2[C@H](C1=O)[C@H]1CC[C@@H]2O1 (stereo partly drawn) [Compound T41]	100	30	0	100	100	100	90	0	100	100
CCc1sc(-c2ccc(OC(F)F)cc2)nc1C1C(=O)[C@@H]2[C@H](C1=O)[C@H]1CC[C@@H]2O1 (stereo partly drawn) [Compound T42]	90	30	0	90	100	100	100	0	100	100
CCc1sc(-c2ccc(Br)cn2)nc1C1C(=O)[C@@H]2[C@H](C1=O)[C@H]1CC[C@@H]2O1 (stereo partly drawn) [Compound T43]	80	0	0	0	60	100	100	0	90	100
CCc1sc(-c2ccc(Cl)cc2Cl)nc1C1C(=O)[C@@H]2[C@H](C1=O)[C@H]1CC[C@@H]2O1 (stereo partly drawn) [Compound T45]	100	60	0	90	100	100	100	0	100	100
CCc1sc(-c2cc(F)c(Cl)cc2Cl)nc1C1C(=O)[C@@H]2[C@H](C1=O)[C@H]1CC[C@@H]2O1 (stereo partly drawn) [Compound T47]	90	80	0	90	100	100	100	0	100	100
CSc1ccc(-c2nc(C3C(=O)[C@@H]4[C@H](C3=O)[C@H]3CC[C@@H]4O3)c(C)s2)cc1 (stereo partly drawn) [Compound T48]	70	20	0	40	90	100	40	40	60	90
Cc1sc(-c2ccc([S+](C)[O-])cc2)nc1C1C(=O)[C@@H]2[C@H](C1=O)[C@H]1CC[C@@H]2O1 (stereo partly drawn) [Compound T49]	70	0	0	20	90	100	30	0	50	90
CCc1sc(-c2ccc(SC)cc2)nc1C1C(=O)[C@@H]2[C@H](C1=O)[C@H]1CC[C@@H]2O1 (stereo partly drawn) [Compound T50]	90	0	0	40	90	100	90	0	90	100
Cc1sc(-c2ccc(C(C)C)cc2)nc1C1C(=O)[C@@H]2[C@H](C1=O)[C@H]1CC[C@@H]2O1 (stereo partly drawn) [Compound T51]	100	90	0	80	100	100	80	0	90	90
Cc1sc(-c2ccc(OC(F)F)cc2Cl)nc1C1C(=O)[C@@H]2[C@H](C1=O)[C@H]1CC[C@@H]2O1 (stereo partly drawn) [Compound T52]	100	90	0	70	100	100	100	0	100	100
Cc1cnc(-c2ccc(Cl)cc2)nc1C1C(=O)[C@@H]2[C@H](C1=O)[C@H]1CC[C@@H]2O1 (stereo partly drawn) [Compound T53]	80	70	90	50	90	90	70	0	60	100
Cc1sc(-c2ccc(OC(F)F)cc2F)nc1C1C(=O)[C@@H]2[C@H](C1=O)[C@H]1CC[C@@H]2O1 (stereo partly drawn) [Compound T54]	100	100	0	90	100	100	100	40	100	100
